Assay results taken from patent US6358885B1, “Substituted phenylheterocyclic herbicides” (Mississippi State University, priority 1992, dated 2002).

What was measured:
Assay in all cases: Test B preemergence/postemergence greenhouse plant response rating 0 to 10
Settings in all cases: 0 to 10 scale
barley = type: in vivo, Hordeum vulgare
Text: (§1) Seeds of barley (Hordeum vulgare), barnyardgrass (Echinochloa crus-galli), bedstraw (Galium aparine), blackgrass (Alopecurus myosuroides), […] (Bromus secalinus), chickweed (Stellaria media), cocklebur (Xanthium pensylvanicum), corn (Zea mays), cotton (Gossypium hirsutum), crabgrass (Digitaria spp.), giant foxtail (Setaria faberii), lambsquarters (Chenopodium album), morningglory (Ipomoea hederacea), rape (Brassica napus), rice (Oryza sativa), sorghum (Sorghum bicolor), soybean (Glycine max), sugar beet (Beta vulgaris), velvetleaf (Abutilon theophrasti), wheat (Triticum aestivum), wild buckwheat (Polygonum convolvulus), and wild oat (Avena fatua) and purple nutsedge. (Cyperus rotundus) tubers were planted and treated preemergence with test chemicals dissolved in a non-phytotoxic solvent. At the same time, these crop and weed species were also treated with postemergence applications of test chemicals. Plants ranged in height from two to eighteen cm (one to four leaf stage) for postemergence treatments. Treated plants and controls were maintained in a greenhouse for twelve to sixteen days, after which all species were compared to controls and visually evaluated. […] A dash (-) response means no test result.

barnyardgrass = type: in vivo, Echinochloa crus-galli
Text: as §1

bedstraw = type: in vivo, Galium aparine
Text: as §1

blackgrass = type: in vivo, Alopecurus myosuroides
Text: as §1

cheatgrass = type: in vivo, Bromus secalinus
Text: as §1

chickweed = type: in vivo, Stellaria media
Text: as §1

cocklebur = type: in vivo, Xanthium pensylvanicum
Text: as §1

corn = type: in vivo, Zea mays
Text: as §1

cotton = type: in vivo, Gossypium hirsutum
Text: as §1

crabgrass = type: in vivo, Digitaria spp.
Text: as §1

giant foxtail = type: in vivo, Setaria faberii
Text: as §1

lambsquarters = type: in vivo, Chenopodium album
Text: as §1

morningglory = type: in vivo, Ipomoea hederacea
Text: as §1

rape = type: in vivo, Brassica napus
Text: as §1

rice = type: in vivo, Oryza sativa
Text: as §1

sorghum = type: in vivo, Sorghum bicolor
Text: as §1

soybean = type: in vivo, Glycine max
Text: as §1

sugar beet = type: in vivo, Beta vulgaris
Text: as §1

velvetleaf = type: in vivo, Abutilon theophrasti
Text: as §1

wheat = type: in vivo, Triticum aestivum
Text: as §1

wild buckwheat = type: in vivo, Polygonum convolvulus
Text: as §1

wild oat = type: in vivo, Avena fatua
Text: as §1

purple nutsedge = type: in vivo, Cyperus rotundus
Text: as §1

C=CCOc1cc(-c2nn3c(c2Br)CCCC3)c(F)cc1Cl [Compound 37]
Plant response rating, Barley (barley; POSTEMERGENCE, Rate 50 g/ha): 4
Plant response rating, Barley (barley; POSTEMERGENCE, Rate 200 g/ha): 6
Plant response rating, Barley (barley; PREEMERGENCE, Rate 50 g/ha): 0
Plant response rating, Barley (barley; Rate 200 g/ha, PREEMERGENCE): 0
Plant response rating, Barnyardgrass (barnyardgrass; POSTEMERGENCE, Rate 50 g/ha): 5
Plant response rating, Barnyardgrass (barnyardgrass; POSTEMERGENCE, Rate 200 g/ha): 7
Plant response rating, Barnyardgrass (barnyardgrass; PREEMERGENCE, Rate 50 g/ha): 0
Plant response rating, Barnyardgrass (barnyardgrass; Rate 200 g/ha, PREEMERGENCE): 4
Plant response rating, Bedstraw (bedstraw; POSTEMERGENCE, Rate 50 g/ha): 7
Plant response rating, Bedstraw (bedstraw; POSTEMERGENCE, Rate 200 g/ha): 10
Plant response rating, Bedstraw (bedstraw; Rate 200 g/ha, PREEMERGENCE): 8
Plant response rating, Blackgrass (blackgrass; POSTEMERGENCE, Rate 50 g/ha): 4
Plant response rating, Blackgrass (blackgrass; POSTEMERGENCE, Rate 200 g/ha): 7
Plant response rating, Blackgrass (blackgrass; PREEMERGENCE, Rate 50 g/ha): 0
Plant response rating, Blackgrass (blackgrass; Rate 200 g/ha, PREEMERGENCE): 6
Plant response rating, Cheatgrass (cheatgrass; POSTEMERGENCE, Rate 50 g/ha): 4
Plant response rating, Cheatgrass (cheatgrass; POSTEMERGENCE, Rate 200 g/ha): 7
Plant response rating, Cheatgrass (cheatgrass; PREEMERGENCE, Rate 50 g/ha): 5
Plant response rating, Cheatgrass (cheatgrass; Rate 200 g/ha, PREEMERGENCE): 6
Plant response rating, Chickweed (chickweed; POSTEMERGENCE, Rate 50 g/ha): 5
Plant response rating, Chickweed (chickweed; POSTEMERGENCE, Rate 200 g/ha): 10
Plant response rating, Chickweed (chickweed; Rate 200 g/ha, PREEMERGENCE): 9
Plant response rating, Cocklebur (cocklebur; POSTEMERGENCE, Rate 50 g/ha): 7
Plant response rating, Cocklebur (cocklebur; POSTEMERGENCE, Rate 200 g/ha): 10
Plant response rating, Cocklebur (cocklebur; PREEMERGENCE, Rate 50 g/ha): 0
Plant response rating, Cocklebur (cocklebur; Rate 200 g/ha, PREEMERGENCE): 0
Plant response rating, Corn (corn; POSTEMERGENCE, Rate 50 g/ha): 6
Plant response rating, Corn (corn; POSTEMERGENCE, Rate 200 g/ha): 8
Plant response rating, Corn (corn; PREEMERGENCE, Rate 50 g/ha): 0
Plant response rating, Corn (corn; Rate 200 g/ha, PREEMERGENCE): 3
Plant response rating, Cotton (cotton; POSTEMERGENCE, Rate 50 g/ha): 10
Plant response rating, Cotton (cotton; POSTEMERGENCE, Rate 200 g/ha): 10
Plant response rating, Cotton (cotton; PREEMERGENCE, Rate 50 g/ha): 0
Plant response rating, Cotton (cotton; Rate 200 g/ha, PREEMERGENCE): 7
Plant response rating, Crabgrass (crabgrass; POSTEMERGENCE, Rate 50 g/ha): 4
Plant response rating, Crabgrass (crabgrass; POSTEMERGENCE, Rate 200 g/ha): 5
Plant response rating, Crabgrass (crabgrass; PREEMERGENCE, Rate 50 g/ha): 0
Plant response rating, Crabgrass (crabgrass; Rate 200 g/ha, PREEMERGENCE): 7
Plant response rating, Giant foxtail (giant foxtail; POSTEMERGENCE, Rate 50 g/ha): 5
Plant response rating, Giant foxtail (giant foxtail; PREEMERGENCE, Rate 50 g/ha): 2
Plant response rating, Giant foxtail (giant foxtail; Rate 200 g/ha, POSTEMERGENCE): 6
Plant response rating, Giant foxtail (giant foxtail; Rate 200 g/ha, PREEMERGENCE): 5
Plant response rating, Lambsquarter (lambsquarters; POSTEMERGENCE, Rate 50 g/ha): 9
Plant response rating, Lambsquarter (lambsquarters; PREEMERGENCE, Rate 50 g/ha): 10
Plant response rating, Lambsquarter (lambsquarters; Rate 200 g/ha, POSTEMERGENCE): 10
Plant response rating, Lambsquarter (lambsquarters; Rate 200 g/ha, PREEMERGENCE): 10
Plant response rating, Morningglory (morningglory; POSTEMERGENCE, Rate 50 g/ha): 7
Plant response rating, Morningglory (morningglory; PREEMERGENCE, Rate 50 g/ha): 0
Plant response rating, Morningglory (morningglory; Rate 200 g/ha, POSTEMERGENCE): 8
Plant response rating, Morningglory (morningglory; Rate 200 g/ha, PREEMERGENCE): 1
Plant response rating, Rape (rape; POSTEMERGENCE, Rate 50 g/ha): 9
Plant response rating, Rape (rape; Rate 200 g/ha, POSTEMERGENCE): 10
Plant response rating, Rape (rape; Rate 200 g/ha, PREEMERGENCE): 6
Plant response rating, Rice (rice; POSTEMERGENCE, Rate 50 g/ha): 5
Plant response rating, Rice (rice; PREEMERGENCE, Rate 50 g/ha): 0
Plant response rating, Rice (rice; Rate 200 g/ha, POSTEMERGENCE): 6
Plant response rating, Rice (rice; Rate 200 g/ha, PREEMERGENCE): 0
Plant response rating, Sorghum (sorghum; POSTEMERGENCE, Rate 50 g/ha): 5
Plant response rating, Sorghum (sorghum; PREEMERGENCE, Rate 50 g/ha): 0
Plant response rating, Sorghum (sorghum; Rate 200 g/ha, POSTEMERGENCE): 6
Plant response rating, Sorghum (sorghum; Rate 200 g/ha, PREEMERGENCE): 1
Plant response rating, Soybean (soybean; POSTEMERGENCE, Rate 50 g/ha): 5
Plant response rating, Soybean (soybean; PREEMERGENCE, Rate 50 g/ha): 0
Plant response rating, Soybean (soybean; Rate 200 g/ha, POSTEMERGENCE): 6
Plant response rating, Soybean (soybean; Rate 200 g/ha, PREEMERGENCE): 4
Plant response rating, Sugar beet (sugar beet; POSTEMERGENCE, Rate 50 g/ha): 10
Plant response rating, Sugar beet (sugar beet; PREEMERGENCE, Rate 50 g/ha): 9
Plant response rating, Sugar beet (sugar beet; Rate 200 g/ha, POSTEMERGENCE): 10
Plant response rating, Sugar beet (sugar beet; Rate 200 g/ha, PREEMERGENCE): 9
Plant response rating, Velvetleaf (velvetleaf; POSTEMERGENCE, Rate 50 g/ha): 10
Plant response rating, Velvetleaf (velvetleaf; PREEMERGENCE, Rate 50 g/ha): 1
Plant response rating, Velvetleaf (velvetleaf; Rate 200 g/ha, POSTEMERGENCE): 10
Plant response rating, Velvetleaf (velvetleaf; Rate 200 g/ha, PREEMERGENCE): 9
Plant response rating, Wheat (wheat; POSTEMERGENCE, Rate 50 g/ha): 4
Plant response rating, Wheat (wheat; PREEMERGENCE, Rate 50 g/ha): 0
Plant response rating, Wheat (wheat; Rate 200 g/ha, POSTEMERGENCE): 5
Plant response rating, Wheat (wheat; Rate 200 g/ha, PREEMERGENCE): 3
Plant response rating, Wild buckwheat (wild buckwheat; POSTEMERGENCE, Rate 50 g/ha): 9
Plant response rating, Wild buckwheat (wild buckwheat; PREEMERGENCE, Rate 50 g/ha): 9
Plant response rating, Wild buckwheat (wild buckwheat; Rate 200 g/ha, POSTEMERGENCE): 10
Plant response rating, Wild buckwheat (wild buckwheat; Rate 200 g/ha, PREEMERGENCE): 10
Plant response rating, Wild oat (wild oat; POSTEMERGENCE, Rate 50 g/ha): 4
Plant response rating, Wild oat (wild oat; PREEMERGENCE, Rate 50 g/ha): 2
Plant response rating, Wild oat (wild oat; Rate 200 g/ha, POSTEMERGENCE): 6
Plant response rating, Nutsedge (purple nutsedge; POSTEMERGENCE, Rate 50 g/ha): 2
Plant response rating, Nutsedge (purple nutsedge; PREEMERGENCE, Rate 50 g/ha): 0
Plant response rating, Nutsedge (purple nutsedge; Rate 200 g/ha, POSTEMERGENCE): 4
Plant response rating, Nutsedge (purple nutsedge; Rate 200 g/ha, PREEMERGENCE): 0
